Values quoted from earlier work in patent publication US20150283066A1, “VAGINAL DANAZOL COMBINED WITH NON STEROIDAL ANTI INFLAMMATORY DRUGS (NSAIDS) COMPOSITIONS” (MEDIGLOBE LTD, priority 2011, published 2015).

Details: literature (University of Helsinki); stated jointly for NSAIDs and tranexamic acid

## NC[C@H]1CC[C@H](C(=O)O)CC1 [tranexamic acid]
  reduction of menstrual blood loss: 20-60%
